Reference: patent US5744453A, “Polyamine conjugates for treatment of infection” (priority 1996, dated 1998)
Values after ≈ are worked out from the molar mass of the structure shown. Structures can show the parent of a compound that is named as a salt. Where two headings read alike, the source gives them in different places.

Tests used:
Assay type in all cases: cell-based
[1] = system: Escherichia coli strain 25922; assay: Determination of MIC against bacteria (Table 1), E. coli 25922; settings: read-out: minimum inhibitory concentration (MIC), E. coli 25922
Description: (§1) Antibiotic indicator strains Escherichia coli strain 25922, Enterococcus faecalis 29212, Pseudomonas aeruginosa 27853, and Staphylococcus aureus 29213 are obtained from the American Type Tissue Culture Collection (ATCC) in Rockville, Md. The cystic fibrosis isolate, Pseudomonas aeruginosa 39324, is also obtained from ATCC. Bacteria are routinely cultivated in cation-supplemented Mueller-Hinton broth (CAMHB) or agar at 37° C.
(§2) The minimum inhibitory concentration (MIC) of glycosylated and non-glycosylated steroidal polyamines for antibiotic indicator strains is determined by dissolving the test compounds in deionized water to a final concentration of 1 mg per mL. […] These solutions are sterilized by filtration through 0.22 micron syringe filters.
(§3) Stock solutions of individual compounds are serially diluted (two-fold) in sterile CAMHB in 96-well tissue culture dishes (Falcon) and inoculated with antibiotic indicator strains that are prepared as described below.
(§4) Antibiotic indicator strains are grown in 5 mL of CAMHB for 3-4 h at 37° C. with shaking (200 rpm) on a New Brunswick rotary shaker. Bacteria are adjusted to a turbidity that matched a 0.5 McFarland standard (ca. 10^8 CFU per mL) in sterile 0.85% saline. These bacterial suspensions are diluted 1:20 in sterile 0.85% saline and 10 μL (ca. […]) of each suspension is used to inoculate individual wells of a 96 well plate that contained different concentrations of the test compounds. Following inoculation, the plates are sealed with plastic tape, incubated for 24 h at 37° C. and visually inspected for bacterial growth. CAMHB inoculated with each of the antibiotic test strains and uninoculated CAMBH plus each of the test compounds served as positive and negative controls.

[2] = system: Pseudomonas aeruginosa 27853; assay: Determination of MIC against bacteria (Table 1), P. aeruginosa 27853; settings: read-out: minimum inhibitory concentration (MIC), P. aeruginosa 27853
Description: as §1, §2, §3, §4

[3] = system: Enterococcus faecalis 29212; assay: Determination of MIC against bacteria (Table 1), E. faecalis 29212; settings: read-out: minimum inhibitory concentration (MIC), E. faecalis 29212
Description: as §1, §2, §3, §4

[4] = system: Staphylococcus aureus 29213; assay: Determination of MIC against bacteria (Table 1), S. aureus 29213; settings: read-out: minimum inhibitory concentration (MIC), S. aureus 29213
Description: as §1, §2, §3, §4

[5] = system: Pseudomonas aeruginosa 39324; assay: Determination of MIC against bacteria (Table 1), P. aeruginosa 39324 (cystic fibrosis isolate); settings: read-out: minimum inhibitory concentration (MIC), P. aeruginosa 39324
Description: as §1, §2, §3, §4

[6] = Pseudomonas aeruginosa, 27853, 24 h
[7] = Enterococcus faecalis, 29212, 24 h
[8] = Staphylococcus aureus, 29213, 24 h
[9] = Pseudomonas aeruginosa, 39324, 24 h
[10] = Escherichia coli, 25922, CAMHB, 24 h at 37° C., tested from 1.56 to 200 μg per mL
[11] = Pseudomonas aeruginosa, 27853, CAMHB, 24 h at 37° C., tested from 1.56 to 200 μg per mL
[12] = Enterococcus faecalis, 29212, CAMHB, 24 h at 37° C., tested from 1.56 to 200 μg per mL
[13] = Staphylococcus aureus, 29213, CAMHB, 24 h at 37° C., tested from 1.56 to 200 μg per mL
[14] = Pseudomonas aeruginosa, 39324, CAMHB, 24 h at 37° C., tested from 1.56 to 200 μg per mL

Row | SMILES | MIC ([1]; Escherichia coli, 25922, 24 h) [µg/mL] | MIC [2, 6] [µg/mL] | MIC [3, 7] [µg/mL] | MIC [4, 8] [µg/mL] | MIC [5, 9] [µg/mL] | MIC [1, 10] [µg/mL] | MIC [2, 11] [µg/mL] | MIC [3, 12] [µg/mL] | MIC [4, 13] [µg/mL] | MIC [5, 14] [µg/mL]
1 | C[C@H](CCC(=O)NCCCNCCCCNCCCN)[C@H]1CC[C@H]2[C@@H]3CC[C@@H]4C[C@H](O)CC[C@]4(C)[C@H]3C[C@H](O)[C@]12C [Compound A, 3α,12α-dihydroxy-7-deoxy-5β-cholan-24-oic acid, N-(4,9-diaza-12-aminododecyl)amide] | 12.5 (≈ 21.7 µM) | 3.12 (≈ 5.41 µM) | 12.5 (≈ 21.7 µM) | 6.25 (≈ 10.8 µM) | 25 (≈ 43.3 µM) |  |  |  |  | 
2 | C[C@H](CCC(=O)NCCCNCCCCNCCCN)[C@H]1CC[C@H]2[C@@H]3[C@H](O)C[C@@H]4C[C@H](O)CC[C@]4(C)[C@H]3C[C@H](O)[C@]12C [Compound B, 3α,7α,12α-trihydroxy-5β-cholan-24-oic acid, N-(4,9-diaza-12-aminododecyl)amide] | 200 (≈ 337 µM) | 100 to 200 (≈ 169 to 337 µM) | 200 (≈ 337 µM) | 50 (≈ 84.3 µM) | 100 (≈ 169 µM) |  |  |  |  | 
3 | C[C@H](CCC(=O)NCCCNCCCCNCCCN)[C@H]1CC[C@H]2[C@@H]3[C@H](O[C@H]4O[C@H](CO)[C@@H](O)[C@H](O)[C@H]4O)C[C@@H]4C[C@H](O)CC[C@]4(C)[C@H]3C[C@H](O[C@H]3O[C@H](CO)[C@@H](O)[C@H](O)[C@H]3O)[C@]12C [Compound C, 3α-hydroxy-7α,12α-di(1'α-glucosyl)-5β-cholan-24-oic acid, N-(4,9-diaza-12-aminododecyl)amide] | 200 (≈ 218 µM) | 200 (≈ 218 µM) | > 200 | 200 (≈ 218 µM) |  |  |  |  |  | 
4 | C[C@H](CCC(=O)NCCCNCCCCNCCCN)[C@H]1CC[C@H]2[C@@H]3CC[C@@H]4C[C@H](O)CC[C@]4(C)[C@H]3C[C@H](O[C@H]3O[C@H](CO)[C@@H](O)[C@H](O)[C@H]3O)[C@]12C [Compound D, 3α-hydroxy-7-deoxy-12α-(1'α-glucosyl)-5β-cholan-24-oic acid, N-(4,9-diaza-12-aminododecyl)amide] | 100 (≈ 135 µM) | 100 to 200 (≈ 135 to 271 µM) | 200 (≈ 271 µM) | 50 to 100 (≈ 67.7 to 135 µM) |  |  |  |  |  | 
5 | C[C@H](CCC(=O)NCCCNCCCCNCCCN)[C@H]1CC[C@H]2[C@@H]3[C@H](O[C@H]4O[C@H](CO)[C@@H](O)[C@H](O)[C@H]4O)C[C@@H]4C[C@H](O)CC[C@]4(C)[C@H]3CC[C@]12C [Compound E, 3α-hydroxy-12-deoxy-7α-(1'α-glucosyl)-5β-cholan-24-oic acid, N-(4,9-diaza-12-aminododecyl)amide] | 12.5 (≈ 16.9 µM) | 12.5 (≈ 16.9 µM) | 25 (≈ 33.8 µM) | 25 (≈ 33.8 µM) | 12.5 (≈ 16.9 µM) |  |  |  |  | 
6 | C[C@H](CCC(=O)NCCNCCNCCNCCN)[C@H]1CC[C@H]2[C@@H]3CC[C@@H]4C[C@H](O)CC[C@]4(C)[C@H]3C[C@H](O)[C@]12C [Compound F, 3α,12α-dihydroxy-7-deoxy-5β-cholan-24-oic acid, N-(3,6,9-triaza-11-aminoundecyl)amide] |  |  |  |  |  | 100 (≈ 177 µM) | 100 (≈ 177 µM) | 100 (≈ 177 µM) | 25 (≈ 44.3 µM) | 100 (≈ 177 µM)
7 | C[C@H](CCC(=O)NCCNCCNCCNCCNCCN)[C@H]1CC[C@H]2[C@@H]3CC[C@@H]4C[C@H](O)CC[C@]4(C)[C@H]3C[C@H](O)[C@]12C [Compound G, 3α,12α-dihydroxy-7-deoxy-5β-cholan-24-oic acid, N-(3,6,9,12-tetraaza-14-aminotetradecyl)amide] |  |  |  |  |  | 100 (≈ 165 µM) | 50 (≈ 82.4 µM) | 100 (≈ 165 µM) | 25 (≈ 41.2 µM) | 50 to 100 (≈ 82.4 to 165 µM)
8 | C[C@H](CCC(=O)NCCNCCNCCNCCN)[C@H]1CC[C@H]2[C@@H]3[C@H](O)C[C@@H]4C[C@H](O)CC[C@]4(C)[C@H]3CC[C@]12C [Compound I, 3α,7α-dihydroxy-12-deoxy-5β-cholan-24-oic acid, N-(3,6,9-triaza-11-aminoundecyl)amide] |  |  |  |  |  | 25 (≈ 44.3 µM) | 50 (≈ 88.7 µM) | 25 (≈ 44.3 µM) | 12.5 (≈ 22.2 µM) | 50 (≈ 88.7 µM)
9 | C[C@H](CCC(=O)NCCNCCNCCNCCN)[C@H]1CC[C@H]2[C@@H]3[C@H](O)C[C@@H]4C[C@H](O)CC[C@]4(C)[C@H]3C[C@H](O)[C@]12C [Compound J, 3α,7α,12α-trihydroxy-5β-cholan-24-oic acid, N-(3,6,9-triaza-11-aminoundecyl)amide] |  |  |  |  |  | 75 (≈ 129 µM) | 75 (≈ 129 µM) | 18.7 (≈ 32.2 µM) | 37.5 (≈ 64.7 µM) | 37.5 (≈ 64.7 µM)
10 | C[C@H](CCC(=O)NCCNCCNCCNCCNCCN)[C@H]1CC[C@H]2[C@@H]3[C@H](O)C[C@@H]4C[C@H](O)CC[C@]4(C)[C@H]3C[C@H](O)[C@]12C [Compound K, 3α,7α,12α-trihydroxy-12-deoxy-5β-cholan-24-oic acid, N-(3,6,9,12-tetraaza-14-aminotetradecyl)amide] |  |  |  |  |  | 75 (≈ 120 µM) | 75 (≈ 120 µM) | 15.7 (≈ 25.2 µM) | 37.5 (≈ 60.2 µM) | 75 (≈ 120 µM)
11 | C[C@H](CCC(=O)NCCNCCNCCNCCNCCN)[C@H]1CC[C@H]2[C@@H]3[C@H](O[C@H]4O[C@H](CO)[C@@H](O)[C@H](O)[C@H]4O)C[C@@H]4C[C@H](O)CC[C@]4(C)[C@H]3C[C@H](O[C@H]3O[C@H](CO)[C@@H](O)[C@H](O)[C@H]3O)[C@]12C [Compound L, 3α-hydroxy-7α,12α-di(1'α-glucosyl)-5β-cholan-24-oic acid, N-(3,6,9,12-tetraaza-14-aminotetradecyl)amide] |  |  |  |  |  | > 200 | > 200 | > 200 | > 200 | > 150
12 | C[C@H](CCC(=O)NCCNCCNCCNCCN)[C@H]1CC[C@H]2[C@@H]3[C@H](O[C@H]4O[C@H](CO)[C@@H](O)[C@H](O)[C@H]4O)C[C@@H]4C[C@H](O)CC[C@]4(C)[C@H]3C[C@H](O[C@H]3O[C@H](CO)[C@@H](O)[C@H](O)[C@H]3O)[C@]12C [Compound M, 3α-hydroxy-7α,12α-di(1'α-glucosyl)-5β-cholan-24-oic acid, N-(3,6,9-triaza-11-aminoundecyl)amide] |  |  |  |  |  | > 200 | > 200 | > 200 | > 200 | > 150
13 | C[C@H](CCC(=O)NCCNCCNCCNCCNCCN)[C@H]1CC[C@H]2[C@@H]3CC[C@@H]4C[C@H](O)CC[C@]4(C)[C@H]3CC[C@]12C [Compound N, 3α-hydroxy-7,12-dideoxy-5β-cholan-24-oic acid (or lithocholic acid), N-(3,6,9,12-tetraaza-14-aminotetradecyl)amide] |  |  |  |  |  | > 200 | 200 (≈ 338 µM) | 200 (≈ 338 µM) | 50 (≈ 84.6 µM) | 200 (≈ 338 µM)
14 | C[C@H](CCC(=O)O)[C@H]1CC[C@H]2[C@@H]3[C@H](O)C[C@@H]4C[C@H](O)CC[C@]4(C)[C@H]3C[C@H](O)[C@]12C [cholic acid sodium salt, reference compound] | > 200 | > 200 | > 200 | > 200 | > 200 |  |  |  |  | 
15 | C[C@H](CCC(=O)O)[C@H]1CC[C@H]2[C@@H]3CC[C@@H]4C[C@H](O)CC[C@]4(C)[C@H]3C[C@H](O)[C@]12C [deoxycholic acid sodium salt, reference compound] |  | > 200 | > 200 | > 200 | > 200 | > 200 |  |  |  | 
16 | NCCCNCCCCNCCCN [spermine, N-[N-(3-aminopropyl)-4-aminobutyl]-1,3-diaminopropane, reference compound] |  |  |  |  |  | > 200 | > 200 | > 200 | > 200 | > 150
17 | NCCNCCNCCNCCN [tetraethylenepentamine, reference compound] |  |  |  |  |  | > 200 | > 200 | > 200 | > 200 | > 150
